Where two headings read alike, the source gives them in different places.
What was measured:
[1] = target: T1, LPLA2 (Mus musculus, UniProt Q8VEB4); experiment: LPLA2 thermal stability measurement (SYPRO Orange Tm); format: binding
T1 construct: purchased Proteos Inc. (Kalamazoo, MI)
T1 sequence (Q8VEB4 34-412): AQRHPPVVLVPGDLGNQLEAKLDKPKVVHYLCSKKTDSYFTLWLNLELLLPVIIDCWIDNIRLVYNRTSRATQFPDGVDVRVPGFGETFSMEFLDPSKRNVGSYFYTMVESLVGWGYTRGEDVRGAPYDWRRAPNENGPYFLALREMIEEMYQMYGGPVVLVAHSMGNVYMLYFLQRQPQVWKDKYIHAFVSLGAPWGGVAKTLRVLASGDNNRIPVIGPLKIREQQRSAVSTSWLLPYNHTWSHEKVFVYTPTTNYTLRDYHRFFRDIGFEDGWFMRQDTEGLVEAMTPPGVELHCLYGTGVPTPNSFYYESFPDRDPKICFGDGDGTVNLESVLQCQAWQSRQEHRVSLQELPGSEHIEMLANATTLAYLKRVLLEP

[2] = target: T2, recombinant mouse LPLA2 (PLA2G15) (Mus musculus, UniProt Q8VEB4); experiment: Transacylase activity of LPLA2 (1-O-acyl-N-acetylsphingosine synthase, cell-free liposome assay); format: biochemical
T2 construct: purchased Proteos Inc. (Kalamazoo, MI)
T2 sequence (Q8VEB4 34-412): T1 sequence (Q8VEB4 34-412)

[3] = cited from earlier work
[4] = LPLA2 dependent 1-O-acyl N-acetylsphingosine synthase activity, read-out: LPLA2 IC50
[5] = ref Pubchem and chEMBL database
[6] = 1-O-acyl N-acetylsphingosine synthase activity, pH 4.5, DOPC/sulfatide liposomes, read-out: LPLA2 IC50
[7] = ref Pubchem and chEMBL databases

OC[C@H]1OC(O)[C@H](O)[C@@H](O)[C@@H]1O (mixture of isomers) [D-( ± )-glucose]
(ΔTm)c-(ΔTm)d, difference in melting temperature of LPLA2 alone or in the presence of drug ([1]; N=3 ± SD): 0 °C

Cl.NCCc1ccc(O)c(O)c1 [3-Hydroxy-tyramine hydrochloride]
IC50 [2, 4]: 56.1 µM
pKa (basic) [3, 5]: 9.27

NCCc1cc(O)c(O)cc1O [6-Hydroxy-dopamine]
IC50 [2, 4]: 88 µM
pKa (basic) [3, 5]: 9.85

Nc1c(Br)cc(Br)cc1CN[C@H]1CC[C@H](O)CC1 [Ambroxol, 2-amino-3,5-dibromo-N-(trans-4-hydroxycyclohexyl) benzylamine]
IC50 [2, 6]: 59 µM
pKa (basic) [3, 7]: 9.01
(ΔTm)c-(ΔTm)d, difference in melting temperature of LPLA2 alone or in the presence of drug ([1]; N=3 ± SD): 0.68 ± 0.5 °C

CC(C)(C#N)c1cc(Cn2cncn2)cc(C(C)(C)C#N)c1 [Anastrozole, 2;2″-[5-(1H-1;2;4-Triazol-1-ylmethyl)-1,3-phenylene]bis(2-methyl-propiononitrile)]
IC50 [2, 6]: 4.82 µM
pKa (basic) [3, 7]: 2
(ΔTm)c-(ΔTm)d, difference in melting temperature of LPLA2 alone or in the presence of drug ([1]; N=3 ± SD): -1.05 ± 0.1 °C

CN1[C@@H]2CC[C@H]1C[C@@H](OC(=O)C(CO)c1ccccc1)C2 (some centres unmarked) [Atropine]
IC50 ([2]; LPLA2 IC50): 1870 µM

CC(Cc1cccc(C(F)(F)F)c1)NCCOC(=O)c1ccccc1 (centres unmarked) [Benfluorex, N-(1-methyl-2-(3-[trifluoromethyl]-phenyl)ethyl)amino ethanol benzoate ester]
IC50 [2, 6]: 19.9 µM
pKa (basic) [3, 7]: 9.14

CN1[C@@H]2CC[C@H]1C[C@@H](OC(c1ccccc1)c1ccccc1)C2 [Benztropine]
pKa (basic) [3, 5]: 9.54

CC(C)(C)c1ccc(CN2CCN(C(c3ccccc3)c3ccc(Cl)cc3)CC2)cc1 (centres unmarked) [Buclizine, 1-((4-chlorophenyl)phenylmethyl)-4-((4-(1,1-dimethylethyl)phenyl)methyl)piperazine]
IC50 [2, 6]: 9.13 µM
pKa (basic) [3, 7]: 8.04
(ΔTm)c-(ΔTm)d, difference in melting temperature of LPLA2 alone or in the presence of drug ([1]; N=3 ± SD): 0.63 ± 0.1 °C

C(=Cc1ccccc1)CN1CCN(C(c2ccccc2)c2ccccc2)CC1 [Cinnarizine, 1-(diphenylmethyl)-4-(3-phenylprop-2-en-1-yl) piperazine]
pKa (basic) [3, 7]: 8.44

CCN(CC)CCOc1ccc(C(=C(Cl)c2ccccc2)c2ccccc2)cc1 [Clomifene]
pKa (basic) [3, 5]: 9.31

O=C(O)Cc1ccccc1Nc1c(Cl)cccc1Cl [Diclofenac]
IC50 [2, 4]: 7.2 µM
(ΔTm)c-(ΔTm)d, difference in melting temperature of LPLA2 alone or in the presence of drug ([1]; N=3 ± SD): 1.70 ± 0.5 °C

CC(C)N(CCC(C(N)=O)(c1ccccc1)c1ccccn1)C(C)C (centres unmarked) [Disopyramide]
(ΔTm)c-(ΔTm)d, difference in melting temperature of LPLA2 alone or in the presence of drug [1]: 0 °C

CC[C@H]1OC(=O)[C@H](C)[C@@H](O[C@H]2C[C@@](C)(OC)[C@@H](O)[C@H](C)O2)[C@H](C)[C@@H](O[C@@H]2O[C@H](C)C[C@H](N(C)C)[C@H]2O)[C@](C)(O)C[C@@H](C)C(=O)[C@H](C)[C@@H](O)[C@]1(C)O [Erythromycin, (3R,4S,5S,6R,7R,9R,11R,12R,13S,14R)-6-{[(2S,3R,4S,6R)-4-(dimethylamino)-3-hydroxy-6-methyloxan-2-yl]oxy}-14-ethyl-7,12,13-trihydroxy-4-{[(2R,4R,5S,6S)-5-hydroxy-4-methoxy-4,6-dimethyloxan-2-yl]oxy}-3,5,7,9,11,13-hexamethyl-1-oxacyclotetradecane-2,10-dione]
IC50 [2, 6]: 117 µM
pKa (basic) [3, 7]: 8.38
(ΔTm)c-(ΔTm)d, difference in melting temperature of LPLA2 alone or in the presence of drug ([1]; N=3 ± SD): -0.48 ± 0.4 °C

CC(C)OC(=O)C(C)(C)Oc1ccc(C(=O)c2ccc(Cl)cc2)cc1 [Fenofibrate, 2-[4-(4-chlorobenzoyl)phenoxy]-2-methylpropanoic acid isopropyl ester]
IC50 [2, 6]: 2.25 µM
pKa (basic) [3, 7]: -4.9
(ΔTm)c-(ΔTm)d, difference in melting temperature of LPLA2 alone or in the presence of drug ([1]; N=3 ± SD): 0.44 ± 0.7 °C

Fc1ccc(C(c2ccc(F)cc2)N2CCN(C/C=C/c3ccccc3)CC2)cc1 [Flunarizine, 1-[bis(4-fluorophenyl)methyl]-4-[(2E)-3-phenylprop-2-en-1-yl]piperazine]
pKa (basic) [3, 7]: 7.6

NCC1(CC(=O)O)CCCCC1 [Gabapentin]
IC50 [2, 4]: 37.4 µM
pKa (basic) [3, 5]: 9.91

COc1ccc2c(c1)[nH]c1c(C)nccc12 [Harmine]
IC50 ([2]; LPLA2 IC50, LPLA2 dependent 1-O-acyl N-acetylsphingosine synthase activity): 633 µM
(ΔTm)c-(ΔTm)d, difference in melting temperature of LPLA2 alone or in the presence of drug ([1]; N=3 ± SD): -1.94 ± 0.9 °C

C[C@]12CCC(=O)C=C1CC[C@@H]1[C@@H]2[C@@H](O)C[C@@]2(C)[C@H]1CC[C@]2(O)C(=O)CO [Hydrocortisone]
IC50 [2, 4]: 402 µM
pKa (basic) [3, 5]: -2.8
(ΔTm)c-(ΔTm)d, difference in melting temperature of LPLA2 alone or in the presence of drug ([1]; N=3 ± SD): 1.11 ± 0.1 °C

CN(C)C(=O)C(CCN1CCC(O)(c2ccc(Cl)cc2)CC1)(c1ccccc1)c1ccccc1 [Loperamide, 4-[4-(4-chlorophenyl)-4-hydroxypiperidin-1-yl]-N,N-dimethyl-2,2-diphenylbutanamide]
pKa (basic) [3, 7]: 9.41

CCN(CCCCOC(=O)c1ccc(OC)c(OC)c1)C(C)Cc1ccc(OC)cc1 (centres unmarked) [Mebeverine, 4-{ethyl[1-(4-methoxyphenyl)propan-2-yl]amino}butyl 3,4-dimethoxybenzoate]
IC50 [2, 6]: 417 µM
pKa (basic) [3, 7]: 10.31
(ΔTm)c-(ΔTm)d, difference in melting temperature of LPLA2 alone or in the presence of drug ([1]; N=3 ± SD): -0.05 ± 0.5 °C

CC#C[C@]1(O)CC[C@H]2[C@@H]3CCC4=CC(=O)CCC4=C3[C@@H](c3ccc(N(C)C)cc3)C[C@@]21C [Mifepristone, (1S,3aS,3bS,10R,11aS)-10-[4-(dimethylamino)phenyl]-1-hydroxy-11a-methyl-1-(prop-1-yn-1-yl)-1H,2H,3H,3aH, 3bH,4H,5H,7H,8H, 9H,10H,11H,11aH-cyclopenta[a]phenanthren-7-one]
IC50 [2, 6]: 27.7 µM
pKa (basic) [3, 7]: 4.89
(ΔTm)c-(ΔTm)d, difference in melting temperature of LPLA2 alone or in the presence of drug [1]: 0.20 ± 0.0 °C

Cc1ccccc1C(OCCN(C)C)c1ccccc1 (centres unmarked) [Orphenadrine]
pKa (basic) [3, 5]: 8.87

CN1CCN(CCCN2c3ccccc3Sc3ccc(Cl)cc32)CC1 [Prochlorperazine]
pKa (basic) [3, 5]: 8.39

OC(CCN1CCCC1)(c1ccccc1)C1CCCCC1 (centres unmarked) [Procyclidine]
pKa (basic) [3, 5]: 13.84
(ΔTm)c-(ΔTm)d, difference in melting temperature of LPLA2 alone or in the presence of drug ([1]; N=3 ± SD): 0.51 ± 0.0 °C

CCN(CC)C(C)CN1c2ccccc2Sc2ccccc21 (centres unmarked) [Profenamine, diethyl[1-(10H-phenothiazin-10-yl)propan-2-yl]amine]
IC50 [2, 6]: 8.7 µM
pKa (basic) [3, 7]: 9.6

CCCNCC(O)COc1ccccc1C(=O)CCc1ccccc1 (centres unmarked) [Propafenone, 1-{2-[2-hydroxy-3-(propylamino)propoxy]phenyl}-3-phenylpropan-1-one]
IC50 [2, 6]: 48.2 µM

CSC(=N)N [S-methylisothiourea]
(ΔTm)c-(ΔTm)d, difference in melting temperature of LPLA2 alone or in the presence of drug ([1]; N=3 ± SD): -2.05 ± 0.6 °C

Cc1ccc(C(=O)Nc2ccc(S(=O)(=O)O)c3cc(S(=O)(=O)O)cc(S(=O)(=O)O)c23)cc1NC(=O)c1cccc(NC(=O)Nc2cccc(C(=O)Nc3cc(C(=O)Nc4ccc(S(=O)(=O)O)c5cc(S(=O)(=O)O)cc(S(=O)(=O)O)c45)ccc3C)c2)c1 [Suramin, 8-{4-methyl-3-[3-({[3-({2-methyl-5-[(4,6,8-trisulfonaphthalen-1yl)carbamoyl]phenyl}carbamoyl)phenyl]carbamoyl}amino)benzamido]benzamido}naphthalene-1,3,5-trisulfonic acid]
IC50 [2, 6]: 35.5 µM
(ΔTm)c-(ΔTm)d, difference in melting temperature of LPLA2 alone or in the presence of drug ([1]; N=3 ± SD): 0 °C

CSc1ccc2c(c1)N(CCC1CCCCN1C)c1ccccc1S2 (centres unmarked) [Thioridazine, 10-[2-(1-methylpiperidin-2-yl)ethyl]-2-(methylsulfanyl) -10H-phenothiazine]
pKa (basic) [3, 7]: 8.93

O=c1ccn([C@@H]2O[C@H](CO)[C@@H](O)[C@H]2O)c(=O)[nH]1 [Uridine]
pKa (basic) [3, 5]: -3

CC[C@]1(O)C[C@@H]2CN(CCc3c([nH]c4ccccc34)[C@@](C(=O)OC)(c3cc4c(cc3OC)N(C)[C@H]3[C@@](O)(C(=O)OC)[C@H](OC(C)=O)[C@]5(CC)C=CCN6CC[C@]43[C@@H]65)C2)C1 [Vinblastine, methyl (1R,9R,10S,11R,12R,19R)-11-(acetyloxy)-12-ethyl-4-[(13S,15R,17S)-17-ethyl-17-hydroxy-13-(methoxycarbonyl)-1,11-diazatetracyclo [13.3.1.0ˆ[1].0ˆ[1]]nonadeca-4(12),5(10),6,8-tetraen-13-yl]-10-hydroxy-5-methoxy-8-methyl-8,16-diazapentacyclo [10.6.1.0ˆ[1].0ˆ[1] .0ˆ[3]] nonadeca-2,4,6,13-tetraene-10-carboxylate]
IC50 [2, 6]: 2120 µM
LPLA2 inhibition (in words) ([2]; acyl transferase activity): millimolar concentrations
(ΔTm)c-(ΔTm)d, difference in melting temperature of LPLA2 alone or in the presence of drug ([1]; N=3 ± SD): -0.24 ± 0.0 °C

O=C1C(O)=C([C@H]2CC[C@H](c3ccc(Cl)cc3)CC2)C(=O)c2ccccc21 [atovaquone]
(ΔTm)c-(ΔTm)d, difference in melting temperature of LPLA2 alone or in the presence of drug ([1]; N=3 ± SD): -0.17 ± 0.1 °C

CC(C)COCC(CN(Cc1ccccc1)c1ccccc1)N1CCCC1 (centres unmarked) [bepridil]
(ΔTm)c-(ΔTm)d, difference in melting temperature of LPLA2 alone or in the presence of drug ([1]; N=3 ± SD): 2.10 ± 0.6 °C

CC(C)C[C@H](N)C(=O)O [l-leucine]
(ΔTm)c-(ΔTm)d, difference in melting temperature of LPLA2 alone or in the presence of drug ([1]; N=3 ± SD): 1.86 ± 0.6 °C

CN1CCc2c(c3ccccc3n2Cc2ccccc2)C1 [mebhydroline]
(ΔTm)c-(ΔTm)d, difference in melting temperature of LPLA2 alone or in the presence of drug ([1]; N=3 ± SD): 0.84 ± 0.1 °C

CCN(CC)CCc1nc(-c2ccccc2)no1 [oxolamine]
(ΔTm)c-(ΔTm)d, difference in melting temperature of LPLA2 alone or in the presence of drug ([1]; N=3 ± SD): -0.89 ± 0.0 °C

O=c1ccn([C@@H]2O[C@H](CO)[C@@H](O)[C@H]2O)c(=O)[nH]1 [uridine]
(ΔTm)c-(ΔTm)d, difference in melting temperature of LPLA2 alone or in the presence of drug ([1]; N=3 ± SD): -1.71 ± 0.1 °C

— publication PMC8243516, “Inhibition of lysosomal phospholipase A2 predicts drug-induced phospholipidosis” (Journal of Lipid Research, 2021)
